In patent publication US7939559B2, “Lipase inhibitors” (Suntory Holdings Limited, priority 2004, dated 2011):
Entries after “also recorded” stand apart in the source; their conditions may differ.

Biological target: T1, porcine pancreatic lipase (Sus scrofa, UniProt P00591)
T1 construct: purchased Sigma
T1 sequence (P00591 1-450): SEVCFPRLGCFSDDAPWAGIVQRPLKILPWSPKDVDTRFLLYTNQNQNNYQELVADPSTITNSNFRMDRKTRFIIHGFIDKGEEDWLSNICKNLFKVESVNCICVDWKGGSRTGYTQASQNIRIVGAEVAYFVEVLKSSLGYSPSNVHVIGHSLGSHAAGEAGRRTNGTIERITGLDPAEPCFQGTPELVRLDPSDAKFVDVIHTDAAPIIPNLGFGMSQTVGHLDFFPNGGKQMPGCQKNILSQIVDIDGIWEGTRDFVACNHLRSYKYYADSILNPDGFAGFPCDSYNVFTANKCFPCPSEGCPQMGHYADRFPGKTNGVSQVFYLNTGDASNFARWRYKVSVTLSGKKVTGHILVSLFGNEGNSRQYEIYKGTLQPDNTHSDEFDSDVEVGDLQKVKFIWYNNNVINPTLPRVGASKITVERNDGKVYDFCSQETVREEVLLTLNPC
Test: Lipase inhibitory activity assay (4-MUO fluorescent substrate)
Assay type: biochemical
Settings: for IC50 / lipase inhibitory activity (in words): porcine pancreatic lipase; for IC50: substrate 4-MUO, 25° C., 30 minutes, pH 8.0; for lipase inhibitory activity (in words): 4-MUO, comparison among major tea catechins
Procedure: A lipase activity assay was performed by using the oleate ester of fluorescent 4-methylumbelliferone (4-MUO) as a substrate to measure the fluorescence of 4-methylumbelliferone produced by reaction.
The buffer used for the assay was 13 mM Tris-HCl (pH 8.0) containing 150 mM NaCl, 1.36 mM CaCl2. The enzyme assay was performed using a 0.1 M solution of the substrate 4-MUO (Sigma) in DMSO diluted 1:1000 in said buffer and a solution of porcine pancreatic lipase (Sigma) prepared at 400 U/ml also in said buffer.
An enzymatic reaction was started by adding 25 μl of the lipase/buffer solution after 50 μl of the 4-MUO/buffer solution and 25 μl of distilled water (or an aqueous solution of each sample) were added and mixed in a 96-well microplate at 25° C. After the reaction was performed for 30 minutes, the reaction was stopped by adding 100 μl of a 0.1 M citrate buffer (pH 4.2) and the fluorescence of 4-methylumbelliferone produced by the reaction (excitation 355 nm, emission 460 nm) was measured using a fluorescence plate reader (Fluoroskan Asent CF from Labsystems).
The inhibitory activity of each test sample was determined as IC50(μM), i.e. the amount of the sample giving 50% inhibition of the activity of the control (distilled water).

| lipase inhibitory activity relative to EGCG (6) (fold higher activity than (−)-epigallocatechin 3-O-gallate) | IC50 | lipase inhibitory activity relative to GCG (12) (fold higher activity than (−)-gallocatechin 3-O-gallate) | Compound | lipase inhibitory activity (in words) |
| --- | --- | --- | --- | --- |
| about 3.5 times | 98 nM |  | O=C(Oc1cc(O)cc2c1C[C@@H](OC(=O)c1cc(O)c(O)c(O)c1)[C@@H](c1cc(O)c(O)c(O)c1)O2)c1cc(O)c(O)c(O)c1 [compound 7, (−)-epigallocatechin 3,5-di-O-gallate] |  |
|  | > 20000 nM |  | Oc1cc(O)c2c(c1)O[C@H](c1cc(O)c(O)c(O)c1)[C@@H](O)C2 [compound 11, (+)-gallocatechin] |  |
|  | > 20000 nM |  | Oc1cc(O)c2c(c1)O[C@H](c1ccc(O)c(O)c1)[C@@H](O)C2 [compound 9, (+)-catechin] | did not show lipase inhibitory activity |
|  | > 20000 nM |  | Oc1cc(O)c2c(c1)O[C@H](c1cc(O)c(O)c(O)c1)[C@H](O)C2 [compound 5, (−)-epigallocatechin] |  |
|  | > 20000 nM |  | Oc1cc(O)c2c(c1)O[C@H](c1ccc(O)c(O)c1)[C@H](O)C2 [compound 2, (−)-epicatechin] |  |
|  | 213 nM | about twice higher | O=C(Oc1cc(O)cc2c1C[C@H](OC(=O)c1cc(O)c(O)c(O)c1)[C@@H](c1cc(O)c(O)c(O)c1)O2)c1cc(O)c(O)c(O)c1 [compound 13, (−)-gallocatechin 3,5-di-O-gallate] |  |
|  | 349 nM |  | O=C(O[C@@H]1Cc2c(O)cc(O)cc2O[C@@H]1c1cc(O)c(O)c(O)c1)c1cc(O)c(O)c(O)c1 [compound 6, (−)-epigallocatechin 3-O-gallate] | showed lipase inhibitory activity; also recorded: showed the strongest activity among these catechins |

More lines, now with the values behind:

| Compound | lipase inhibitory activity relative to EGCG (6) (fold higher activity than (−)-epigallocatechin 3-O-gallate) | IC50 | lipase inhibitory activity relative to GCG (12) (fold higher activity than (−)-gallocatechin 3-O-gallate) | lipase inhibitory activity (in words) |
| --- | --- | --- | --- | --- |
| O=C(O[C@@H]1Cc2c(O)cc(O)cc2O[C@H]1c1cc(O)c(O)c(O)c1)c1cc(O)c(O)c(O)c1 [compound 12, (−)-gallocatechin 3-O-gallate] |  | 437 nM |  | showed lipase inhibitory activity |
| O=C(O[C@@H]1Cc2c(O)cc(O)cc2O[C@H]1c1ccc(O)c(O)c1)c1cc(O)c(O)c(O)c1 [compound 10, (−)-catechin 3-O-gallate] |  | 543 nM |  | showed lipase inhibitory activity |
| COc1cc(C(=O)O[C@@H]2Cc3c(O)cc(O)cc3O[C@@H]2c2ccc(O)c(O)c2)cc(O)c1O [compound 4, (−)-epicatechin 3-O-(3′-O-methyl-gallate)] |  | 680 nM |  |  |
| (−)-epicatechin 3-O-gallate [compound 3] |  | 452 nM |  | showed lipase inhibitory activity |
| O=C(/C=C/c1ccc(O)cc1)O[C@@H]1Cc2c(O)cc(O)cc2O[C@@H]1c1cc(O)c(O)c(O)c1 [compound 8, (−)-epigallocatechin 3-O-p-coumaroate] |  | 885 nM |  |  |
| O=C(O[C@@H]1Cc2c(O)cc3c(c2O[C@@H]1c1cc(O)c(O)c(O)c1)C1(O)C(=O)O[C@H]([C@@H](O)CO)C1(O)O3)c1cc(O)c(O)c(O)c1 (stereo partly drawn) [compound 15, 8-C-ascorbyl(−)-epigallocatechin 3-O-gallate] |  | 791 nM |  |  |
| O=C1O[C@H]([C@@H](O)CO)C2(O)Oc3cc(O)c4c(c3C12O)O[C@H](c1cc(O)c(O)c(O)c1)[C@H](O)C4 (stereo partly drawn) [compound 14, 8-C-ascorbyl(−)-epigallocatechin] |  | 646 nM |  |  |
| (−)-epiafzelechin 3-O-gallate [compound 1] |  | 2580 nM |  |  |
